In patent US20260183295A1, “METHODS AND COMPOSITIONS FOR TREATING CANCER” (Onconova Therapeutics, Inc., priority 2022, published 2026):

How the values were obtained:
Experiment in all cases: CETSA-MS, MDA-MB-231 intact cells
Assay type in all cases: cell-based
Details in all cases: 2 μM and 20 μM
ADAR = target: T1, ADAR (Homo sapiens, UniProt P55265)
T1 construct: endogenous in cells; host or cells: MDA-MB-231
Description: (§1) TNBC MDA-MB-231 cells were grown at 37° C. in 5% CO2 and suspended in warm media and split into 4 equal volumes. […] Cells were incubated and then pelleted. Following pelleting, the cells were washed, resuspended, and heated in a thermal gradient. Following heating, the samples were flash frozen and lysed in lysis buffer, agitated by vortex, and sonicated prior to centrifugation. The supernatant was collected and denaturation buffer added. Cold acetone was then added to the cell samples, and protein collected by centrifugation. Pellets were then washed twice with cold acetone and the washed pellets prior to labeling.
(§2) The intact cell protein samples and lysate protein samples were then digested and labeled for mass spectrometry analysis according to the manufacturer's recommended protocols. Digested and labeled protein samples were analyzed by mass spectrometry proteomic analysis and the resulting protein targets were analyzed and plotted.

AGRN = target: T2, AGRN (Homo sapiens, UniProt O00468)
T2 construct: endogenous in cells; host or cells: MDA-MB-231
Description: as §1, §2

AHCTF1 = target: T3, AHCTF1 (Homo sapiens, UniProt Q8WYP5)
T3 construct: endogenous in cells; host or cells: MDA-MB-231
Description: as §1, §2

AP2M1 = target: T4, AP2M1 (Homo sapiens, UniProt Q96CW1)
T4 construct: endogenous in cells; host or cells: MDA-MB-231
Description: as §1, §2

APLP2 = target: T5, APLP2 (Homo sapiens, UniProt Q06481)
T5 construct: endogenous in cells; host or cells: MDA-MB-231
Description: as §1, §2

APP = target: T6, APP (Homo sapiens, UniProt P05067)
T6 construct: endogenous in cells; host or cells: MDA-MB-231
Description: as §1, §2

ARRB2 = target: T7, ARRB2 (Homo sapiens, UniProt P32121)
T7 construct: endogenous in cells; host or cells: MDA-MB-231
Description: as §1, §2

CAVIN3 = target: T8, CAVIN3 (Homo sapiens, UniProt Q969G5)
T8 construct: endogenous in cells; host or cells: MDA-MB-231
Description: as §1, §2

CDKN1A = target: T9, CDKN1A (Homo sapiens, UniProt P38936)
T9 construct: endogenous in cells; host or cells: MDA-MB-231
Description: as §1, §2

DECR1 = target: T10, DECR1 (Homo sapiens, UniProt Q16698)
T10 construct: endogenous in cells; host or cells: MDA-MB-231
Description: as §1, §2

DHX9 = target: T11, DHX9 (Homo sapiens, UniProt Q08211)
T11 construct: 148 targets unique to Compound 1 in MDA-MB-231 intact cells; endogenous in cells; host or cells: MDA-MB-231
Description: as §1, §2

DNAJC13 = target: T12, DNAJC13 (Homo sapiens, UniProt O75165)
T12 construct: 148 targets unique to Compound 1 in MDA-MB-231 intact cells; endogenous in cells; host or cells: MDA-MB-231
Description: as §1, §2

ECE1 = target: T13, ECE1 (Homo sapiens, UniProt P42892)
T13 construct: 148 targets unique to Compound 1 in MDA-MB-231 intact cells; endogenous in cells; host or cells: MDA-MB-231
Description: as §1, §2

FASTKD5 = target: T14, FASTKD5 (Homo sapiens, UniProt Q7L8L6)
T14 construct: 148 targets unique to Compound 1 in MDA-MB-231 intact cells; endogenous in cells; host or cells: MDA-MB-231
Description: as §1, §2

HNRNPA0 = target: T15, HNRNPA0 (Homo sapiens, UniProt Q13151)
T15 construct: 148 targets unique to Compound 1 in MDA-MB-231 intact cells; endogenous in cells; host or cells: MDA-MB-231
Description: as §1, §2

IGFBP4 = target: T16, IGFBP4 (Homo sapiens, UniProt P22692)
T16 construct: endogenous in cells; host or cells: MDA-MB-231
Description: as §1, §2

INCENP = target: T17, INCENP (Homo sapiens, UniProt Q9NQS7)
T17 construct: endogenous in cells; host or cells: MDA-MB-231
Description: as §1, §2

LMAN2 = target: T18, LMAN2 (Homo sapiens, UniProt Q12907)
T18 construct: endogenous in cells; host or cells: MDA-MB-231
Description: as §1, §2

LOXL2 = target: T19, LOXL2 (Homo sapiens, UniProt Q9Y4K0)
T19 construct: endogenous in cells; host or cells: MDA-MB-231
Description: as §1, §2

LRPPRC = target: T20, LRPPRC (Homo sapiens, UniProt P42704)
T20 construct: endogenous in cells; host or cells: MDA-MB-231
Description: as §1, §2

LYPLA2 = target: T21, LYPLA2 (Homo sapiens, UniProt O95372)
T21 construct: endogenous in cells; host or cells: MDA-MB-231
Description: as §1, §2

MATR3 = target: T22, MATR3 (Homo sapiens, UniProt P43243)
T22 construct: endogenous in cells; host or cells: MDA-MB-231
Description: as §1, §2

METTL18 = target: T23, METTL18 (Homo sapiens, UniProt O95568)
T23 construct: endogenous in cells; host or cells: MDA-MB-231
Description: as §1, §2

MLEC = target: T24, MLEC (Homo sapiens, UniProt Q14165)
T24 construct: endogenous in cells; host or cells: MDA-MB-231
Description: as §1, §2

MRC2 = target: T25, MRC2 (Homo sapiens, UniProt Q9UBG0)
T25 construct: endogenous in cells; host or cells: MDA-MB-231
Description: as §1, §2

NPM1 = target: T26, NPM1 (Homo sapiens, UniProt P06748)
T26 construct: endogenous in cells; host or cells: MDA-MB-231
Description: as §1, §2

NRP1 = target: T27, NRP1 (Homo sapiens, UniProt O14786)
T27 construct: endogenous in cells; host or cells: MDA-MB-231
Description: as §1, §2

PHF8 = target: T28, PHF8 (Homo sapiens, UniProt Q9UPP1)
T28 construct: endogenous in cells; host or cells: MDA-MB-231
Description: as §1, §2

PIK3R4 = target: T29, PIK3R4 (Homo sapiens, UniProt Q99570)
T29 construct: endogenous in cells; host or cells: MDA-MB-231
Description: as §1, §2

RAE1 = target: T30, RAE1 (Homo sapiens, UniProt P78406)
T30 construct: endogenous in cells; host or cells: MDA-MB-231
Description: as §1, §2

RIPK 1 = target: T31, RIPK 1 (Homo sapiens, UniProt Q13546)
T31 construct: endogenous in cells; host or cells: MDA-MB-231
Description: as §1, §2

RSF1 = target: T32, RSF1 (Homo sapiens, UniProt Q96T23)
T32 construct: endogenous in cells; host or cells: MDA-MB-231
Description: as §1, §2

SART3 = target: T33, SART3 (Homo sapiens, UniProt Q15020)
T33 construct: endogenous in cells; host or cells: MDA-MB-231
Description: as §1, §2

SCAF1 = target: T34, SCAF1 (Homo sapiens, UniProt Q9H7N4)
T34 construct: endogenous in cells; host or cells: MDA-MB-231
Description: as §1, §2

SGPP1 = target: T35, SGPP1 (Homo sapiens, UniProt Q9BX95)
T35 construct: endogenous in cells; host or cells: MDA-MB-231
Description: as §1, §2

SNX6 = target: T36, SNX6 (Homo sapiens, UniProt Q9UNH7)
T36 construct: endogenous in cells; host or cells: MDA-MB-231
Description: as §1, §2

T31 sequence (Q13546 whole entry): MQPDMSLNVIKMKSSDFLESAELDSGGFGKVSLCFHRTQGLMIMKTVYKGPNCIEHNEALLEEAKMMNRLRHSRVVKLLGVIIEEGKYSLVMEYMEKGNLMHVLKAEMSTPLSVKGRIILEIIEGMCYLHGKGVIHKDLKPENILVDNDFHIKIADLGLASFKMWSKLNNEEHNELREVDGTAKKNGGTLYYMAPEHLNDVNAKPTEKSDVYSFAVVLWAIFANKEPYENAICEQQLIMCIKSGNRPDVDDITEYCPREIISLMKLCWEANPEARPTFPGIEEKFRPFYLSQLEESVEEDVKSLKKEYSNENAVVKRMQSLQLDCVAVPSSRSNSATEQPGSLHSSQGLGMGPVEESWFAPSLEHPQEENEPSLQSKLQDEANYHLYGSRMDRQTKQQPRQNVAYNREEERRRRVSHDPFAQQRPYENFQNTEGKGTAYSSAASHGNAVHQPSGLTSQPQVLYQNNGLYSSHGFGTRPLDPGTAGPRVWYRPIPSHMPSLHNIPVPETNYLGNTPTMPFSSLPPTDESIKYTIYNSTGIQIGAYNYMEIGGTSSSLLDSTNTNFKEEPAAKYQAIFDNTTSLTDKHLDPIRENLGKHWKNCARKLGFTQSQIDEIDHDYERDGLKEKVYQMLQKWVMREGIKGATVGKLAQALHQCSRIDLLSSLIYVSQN
T17 sequence (Q9NQS7 whole entry): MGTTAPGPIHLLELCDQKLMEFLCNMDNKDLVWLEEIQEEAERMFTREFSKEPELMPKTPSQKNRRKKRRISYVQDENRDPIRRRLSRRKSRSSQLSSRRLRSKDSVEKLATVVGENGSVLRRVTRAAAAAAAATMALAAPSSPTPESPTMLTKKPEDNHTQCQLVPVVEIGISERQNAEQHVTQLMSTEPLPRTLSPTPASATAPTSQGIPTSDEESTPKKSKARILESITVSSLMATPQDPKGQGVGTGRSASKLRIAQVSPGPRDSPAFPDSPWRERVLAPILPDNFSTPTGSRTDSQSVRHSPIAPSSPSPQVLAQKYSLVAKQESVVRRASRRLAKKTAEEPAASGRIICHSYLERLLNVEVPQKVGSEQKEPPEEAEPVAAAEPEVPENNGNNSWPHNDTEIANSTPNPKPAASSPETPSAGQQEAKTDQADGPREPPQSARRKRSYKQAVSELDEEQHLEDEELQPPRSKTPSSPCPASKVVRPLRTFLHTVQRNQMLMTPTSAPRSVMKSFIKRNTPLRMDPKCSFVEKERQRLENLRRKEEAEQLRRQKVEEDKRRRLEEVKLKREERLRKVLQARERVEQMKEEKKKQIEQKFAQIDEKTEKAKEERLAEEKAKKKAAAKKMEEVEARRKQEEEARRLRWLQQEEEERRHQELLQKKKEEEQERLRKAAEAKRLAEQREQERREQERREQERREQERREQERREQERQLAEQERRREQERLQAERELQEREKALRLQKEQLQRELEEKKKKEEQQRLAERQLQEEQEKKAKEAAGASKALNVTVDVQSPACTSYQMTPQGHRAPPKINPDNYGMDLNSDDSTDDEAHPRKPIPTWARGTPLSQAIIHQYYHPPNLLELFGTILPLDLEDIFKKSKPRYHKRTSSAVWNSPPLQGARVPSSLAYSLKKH
T26 sequence (P06748 whole entry): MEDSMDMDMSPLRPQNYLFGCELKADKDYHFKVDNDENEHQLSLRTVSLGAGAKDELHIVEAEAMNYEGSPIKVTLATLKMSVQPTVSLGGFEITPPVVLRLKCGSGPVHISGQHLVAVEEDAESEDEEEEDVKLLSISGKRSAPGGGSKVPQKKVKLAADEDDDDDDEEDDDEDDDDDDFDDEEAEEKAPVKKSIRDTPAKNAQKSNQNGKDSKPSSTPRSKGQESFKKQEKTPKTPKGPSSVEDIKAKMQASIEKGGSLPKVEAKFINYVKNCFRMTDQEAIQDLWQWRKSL
T12 sequence (O75165 whole entry): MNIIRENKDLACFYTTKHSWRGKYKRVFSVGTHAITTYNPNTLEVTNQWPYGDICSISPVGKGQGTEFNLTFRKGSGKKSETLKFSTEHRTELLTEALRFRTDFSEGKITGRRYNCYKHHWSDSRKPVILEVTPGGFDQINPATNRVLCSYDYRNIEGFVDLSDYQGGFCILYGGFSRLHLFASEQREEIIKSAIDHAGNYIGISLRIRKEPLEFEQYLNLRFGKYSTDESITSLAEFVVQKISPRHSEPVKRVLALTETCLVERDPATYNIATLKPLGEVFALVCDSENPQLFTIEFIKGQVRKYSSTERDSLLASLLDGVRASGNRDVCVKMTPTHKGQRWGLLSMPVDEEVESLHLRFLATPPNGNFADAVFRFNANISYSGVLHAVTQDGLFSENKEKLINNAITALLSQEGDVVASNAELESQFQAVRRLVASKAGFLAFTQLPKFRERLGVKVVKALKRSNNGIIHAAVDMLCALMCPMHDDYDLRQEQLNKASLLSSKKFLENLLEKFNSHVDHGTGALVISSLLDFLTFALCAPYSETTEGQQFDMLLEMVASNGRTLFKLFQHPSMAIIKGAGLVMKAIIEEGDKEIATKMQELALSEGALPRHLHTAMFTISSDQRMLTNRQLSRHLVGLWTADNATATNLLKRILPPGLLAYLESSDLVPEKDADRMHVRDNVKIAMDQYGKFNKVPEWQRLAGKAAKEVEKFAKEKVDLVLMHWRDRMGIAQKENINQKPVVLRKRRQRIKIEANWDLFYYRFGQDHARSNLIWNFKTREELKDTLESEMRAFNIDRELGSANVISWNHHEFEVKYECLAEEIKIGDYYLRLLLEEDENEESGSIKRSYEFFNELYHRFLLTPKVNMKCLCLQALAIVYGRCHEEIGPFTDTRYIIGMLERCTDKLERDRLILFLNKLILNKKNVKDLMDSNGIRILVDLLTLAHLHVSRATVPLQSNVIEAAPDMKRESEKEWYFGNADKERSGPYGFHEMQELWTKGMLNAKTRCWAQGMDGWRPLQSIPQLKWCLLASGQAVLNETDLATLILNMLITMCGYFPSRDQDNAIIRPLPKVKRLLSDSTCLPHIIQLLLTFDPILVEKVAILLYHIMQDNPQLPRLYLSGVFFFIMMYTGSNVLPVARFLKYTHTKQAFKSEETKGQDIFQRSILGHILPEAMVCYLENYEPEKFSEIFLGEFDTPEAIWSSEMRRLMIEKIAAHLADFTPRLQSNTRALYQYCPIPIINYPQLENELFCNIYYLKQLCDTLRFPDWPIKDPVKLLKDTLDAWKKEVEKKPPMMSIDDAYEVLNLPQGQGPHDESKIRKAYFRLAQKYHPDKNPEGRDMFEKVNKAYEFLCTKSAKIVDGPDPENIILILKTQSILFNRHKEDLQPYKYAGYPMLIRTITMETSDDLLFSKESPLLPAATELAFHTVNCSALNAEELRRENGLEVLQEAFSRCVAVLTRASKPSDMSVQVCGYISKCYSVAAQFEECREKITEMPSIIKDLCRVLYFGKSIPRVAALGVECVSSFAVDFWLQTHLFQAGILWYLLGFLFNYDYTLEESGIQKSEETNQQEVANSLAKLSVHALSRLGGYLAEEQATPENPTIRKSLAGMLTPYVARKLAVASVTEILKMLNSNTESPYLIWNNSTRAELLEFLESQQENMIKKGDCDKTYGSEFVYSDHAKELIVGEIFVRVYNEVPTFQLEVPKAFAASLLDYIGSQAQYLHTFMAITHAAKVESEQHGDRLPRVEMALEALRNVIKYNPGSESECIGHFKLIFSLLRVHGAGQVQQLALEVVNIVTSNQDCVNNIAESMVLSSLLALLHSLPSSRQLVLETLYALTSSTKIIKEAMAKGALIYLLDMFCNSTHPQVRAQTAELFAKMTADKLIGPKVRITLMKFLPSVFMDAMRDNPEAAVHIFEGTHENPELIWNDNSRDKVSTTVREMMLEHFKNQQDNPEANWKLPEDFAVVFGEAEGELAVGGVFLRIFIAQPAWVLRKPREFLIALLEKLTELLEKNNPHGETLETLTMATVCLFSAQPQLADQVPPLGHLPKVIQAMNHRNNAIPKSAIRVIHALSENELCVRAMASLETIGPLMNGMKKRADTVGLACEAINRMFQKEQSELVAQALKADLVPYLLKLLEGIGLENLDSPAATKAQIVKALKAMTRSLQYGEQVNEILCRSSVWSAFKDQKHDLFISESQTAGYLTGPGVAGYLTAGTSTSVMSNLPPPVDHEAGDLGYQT
T19 sequence (Q9Y4K0 26-774): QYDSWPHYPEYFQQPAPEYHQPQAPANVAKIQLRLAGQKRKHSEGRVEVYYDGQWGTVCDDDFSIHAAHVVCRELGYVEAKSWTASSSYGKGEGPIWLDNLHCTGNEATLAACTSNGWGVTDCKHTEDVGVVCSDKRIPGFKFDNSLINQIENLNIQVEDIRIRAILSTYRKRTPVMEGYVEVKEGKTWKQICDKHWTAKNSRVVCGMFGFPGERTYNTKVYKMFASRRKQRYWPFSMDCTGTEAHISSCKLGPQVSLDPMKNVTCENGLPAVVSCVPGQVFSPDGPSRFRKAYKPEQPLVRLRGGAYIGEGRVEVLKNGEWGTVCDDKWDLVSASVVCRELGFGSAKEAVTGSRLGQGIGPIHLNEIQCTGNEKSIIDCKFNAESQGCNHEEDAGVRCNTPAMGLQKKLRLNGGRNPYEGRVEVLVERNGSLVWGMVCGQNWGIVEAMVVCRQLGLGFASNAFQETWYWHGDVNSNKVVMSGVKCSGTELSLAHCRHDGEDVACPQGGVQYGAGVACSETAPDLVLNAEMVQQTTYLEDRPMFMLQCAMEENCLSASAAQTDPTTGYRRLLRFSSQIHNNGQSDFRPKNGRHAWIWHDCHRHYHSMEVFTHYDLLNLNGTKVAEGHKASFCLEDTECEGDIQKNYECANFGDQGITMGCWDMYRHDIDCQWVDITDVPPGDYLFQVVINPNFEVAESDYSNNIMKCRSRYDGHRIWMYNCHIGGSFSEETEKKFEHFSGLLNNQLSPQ
T9 sequence (P38936 whole entry): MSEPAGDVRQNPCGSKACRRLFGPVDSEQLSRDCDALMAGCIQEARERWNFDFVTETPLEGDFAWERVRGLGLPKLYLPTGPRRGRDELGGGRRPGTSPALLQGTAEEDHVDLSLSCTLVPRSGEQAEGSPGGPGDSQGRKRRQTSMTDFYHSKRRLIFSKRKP

CN1CCN(c2ccc(Nc3ncc4cc(C#N)c(=O)n(C5CCCC5)c4n3)cc2)CC1 [Compound 1, 8-cyclopentyl-2-((4-(4-methylpiperazin-1-yl)phenyl)amino)-7-oxo-7,8-dihydropyrido[2,3-d]pyrimidine-6-carbonitrile]
Group (CETSA-MS thermal shift) (ADAR): Stabilization | Group (CETSA-MS thermal shift) (AGRN): Stabilization | Group (CETSA-MS thermal shift) (AHCTF1): Stabilization | Group (CETSA-MS thermal shift) (AP2M1): Destabilization | Group (CETSA-MS thermal shift) (APLP2): Stabilization | Group (CETSA-MS thermal shift) (APP): Stabilization | Group (CETSA-MS thermal shift) (ARRB2): Stabilization | Group (CETSA-MS thermal shift) (CAVIN3): Stabilization | Group (CETSA-MS thermal shift) (CDKN1A): Destabilization | Group (CETSA-MS thermal shift) (DECR1): Destabilization | Group (CETSA-MS thermal shift) (DHX9): Stabilization | Group (CETSA-MS thermal shift) (DNAJC13): Stabilization | Group (CETSA-MS thermal shift) (ECE1): Stabilization | Group (CETSA-MS thermal shift) (FASTKD5): Stabilization | Group (CETSA-MS thermal shift) (HNRNPA0): Stabilization | Group (CETSA-MS thermal shift) (IGFBP4): Stabilization | Group (CETSA-MS thermal shift) (INCENP): Stabilization | Group (CETSA-MS thermal shift) (LMAN2): Stabilization | Group (CETSA-MS thermal shift) (LOXL2): Stabilization | Group (CETSA-MS thermal shift) (LRPPRC): Stabilization | Group (CETSA-MS thermal shift) (LYPLA2): Destabilization | Group (CETSA-MS thermal shift) (MATR3): Stabilization | Group (CETSA-MS thermal shift) (METTL18): Stabilization | Group (CETSA-MS thermal shift) (MLEC): Stabilization | Group (CETSA-MS thermal shift) (MRC2): Stabilization | Group (CETSA-MS thermal shift) (NPM1): Destabilization | Group (CETSA-MS thermal shift) (NRP1): Stabilization | Group (CETSA-MS thermal shift) (PHF8): Stabilization | Group (CETSA-MS thermal shift) (PIK3R4): Stabilization | Group (CETSA-MS thermal shift) (RAE1): Stabilization | Group (CETSA-MS thermal shift) (RIPK 1): Stabilization | Group (CETSA-MS thermal shift) (RSF1): Stabilization | Group (CETSA-MS thermal shift) (SART3): Destabilization | Group (CETSA-MS thermal shift) (SCAF1): Stabilization | Group (CETSA-MS thermal shift) (SGPP1): Stabilization | Group (CETSA-MS thermal shift) (SNX6): Destabilization
